PubChem BioAssay AID1845195 (Molecular Pharmacology Branch, DTP, NCI, 2023)
Values joined by “and” are separate entries in the source; they are usually repeats but may differ in a detail not shown here. Equal entries are not always repeated.

Tested on: 156681-154-R-J1 tumor spheroid viability
Test: Anticancer human tumor 156681-154-R-J1 patient-derived melanoma cell line growth inhibition
Details: spheroids with HUVEC and MSC; for viability, T/C: stronger effect = lower value
Description: Multicellular complex tumor spheroid response to DNA repair inhibitors in combination with DNA-damaging drugs
This study explores the anticancer activities of DNA-damaging drugs and inhibitors of DNA damage repair, both as single agents and in combinations. Complex tumor spheroids comprised of malignant cells, endothelial cells and mesenchymal stem cells served as an in vitro model for human solid tumors. This model system incorporates physiologically relevant features and patient-derived or established malignant cell lines with clinically relevant genetic alterations from many tumor types. Twenty-six patient-derived or established malignant cell lines were evaluated representing sarcoma, melanoma, small cell lung cancer (SCLC), non-small cell lung cancer (NSCLC), as well as bladder, ovarian and pancreatic cancers. The concentration ranges selected for each drug and investigational agent were based upon clinically achievable concentrations if the clinical Cmax of the agent was known.
Compounds. The drugs and compounds olaparib (NSC753686), talazoparib (NSC767125), berzosertib (NSC777718), elimusertib (NSC800525), nedisertib (NSC802822), VX-984 (NSC792969), AZD-1390 (NSC803789), temozolomide (NSC362856), topotecan (NSC609699), trabectedin (NSC813783), staurosporine (NSC755774), and gemcitabine (NSC613327) were obtained from the National Cancer Institute (NCI) Developmental Therapeutics Program Chemical Repository. The FDA-approved anticancer drug set is available from the Developmental Therapeutics Program at https://dtp.cancer.gov/organization/dscb/obtaining/available_plates.htm. […] The stock solutions were prepared in dimethyl sulfoxide (DMSO, Sigma-Aldrich, St. Louis, MO, cat. D2650) at 400-fold the tested concentration and stored at -70 degrees C. Prior to their use, the stock solutions were diluted in fresh medium and the final DMSO concentration in the assay was 0.25% (v/v). All drugs and investigational agents were tested over a range starting from a high concentration at or near the clinical Cmax and decreasing in half-log increments. If the clinical Cmax for an agent had not been determined, the highest concentration tested was 10 microM.
Cell Lines. The patient-derived cancer cell (PDC) lines: 156681-154-R-J1-PDC, 283228-195-R-J1-PDC, 287954-098-R-J1-PDC, 292921-168-R-J2-PDC, 349418-098-R-PDC, 425362-245-T-J1-PDC, 556581-035-R-J1-PDC, and BL0293-F563-PDC were received from the NCI Patient-Derived Models Repository (PDMR, https://pdmr.cancer.gov). The established cell lines HS-SY-2 (RRID:CVCL_8719), MPNST, and SYO-1 (RRID:CVCL_7146) were obtained from the Sloan Kettering Institute. The alveolar soft parts sarcoma cell line ASPS-1 (RRID:CVCL_S738) was established at the NCI and grown from internal seed stocks. The following established cell lines were purchased from the American Type Culture Collection (ATCC, Manassas, VA): G-401 (ATCC, cat. CRL-1441, RRID:CVCL_0270), SW982 (ATCC, cat. HTB-93, RRID:CVCL_1734), VA-ES-BJ (ATCC, cat. CRL-2138, RRID:CVCL_1785), NCI-H719 (ATCC, cat. CRL-5837, RRID:CVCL_1582), NCI-H196 (ATCC, cat. CRL-5823, RRID:CVCL_1509), NCI-H841 (ATCC, cat. CRL-5845, RRID:CVCL_1595), NCI-H1618 (ATCC, cat. CRL-5879, RRID:CVCL_1480), NCI-H1876 (ATCC, cat. CRL-5902, RRID:CVCL_1503), DMS 114 (ATCC, cat. CRL-2066; RRID:CVCL_1174), NCI-H211 (ATCC, cat. CRL-5824; RRID:CVCL_1529), and SW 1271 (ATCC, cat. CRL-2177, RRID:CVCL_1716). The small cell lung cancer cell line COR-L88 was purchased from Sigma-Aldrich (cat. 92031917-1VL, RRID:CVCL_1141). The non-small cell lung cancer cell lines NCI-H226 (RRID:CVCL_1544) and NCI-H322M (RRID:CVCL_1557) were established at the NCI and grown from internal seed stocks. Pooled donor human umbilical vein endothelial cells (HUVEC, Lonza, cat. CC-2519) and human mesenchymal stem cells (hMSC, Lonza, cat. PT-2501) were purchased from Lonza (Walkersville, MD).
Cell Culture. All cells were maintained in an incubator at 37 degrees C and 5% CO2 with 95% humidity. […]

[1] = compound alone, run of 10/17/2019
[2] = compound alone, run of 10/25/2019
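Further: spheroids exposed to compounds for 7 days before readout.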
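Wherever viability, T/C is given: percent of vehicle control viability where 100% = DMSO-treated spheroids.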

| Compound | viability, T/C (compound 0.0316 µM) | viability, T/C (compound 0.1 µM) | viability, T/C (compound 0.316 µM) | viability, T/C (compound 1 µM) | viability, T/C (compound 3.16 µM) | viability, T/C (compound 10 µM) | IC50 (curve of compound) | viability, T/C (compound 0.00949 µM) | viability, T/C (compound 0.0949 µM) | viability, T/C (compound 0.3 µM) | viability, T/C (compound 0.949 µM) | viability, T/C (compound 3 µM) | other results |
| --- | --- | --- | --- | --- | --- | --- | --- | --- | --- | --- | --- | --- | --- |
| CC(C)n1c(=O)n(C)c2cnc3cc(F)c(-c4ccc(OCCCN5CCCCC5)nc4)cc3c21 | 106% and 92.3% and 88.9% | 101% (2×) and 102% | 97.7% and 98.2% and 112% | 100% and 106% and 96.7% | 98.3% and 109% (2×) | 78.9% and 100% and 96.5% | > 10 µM | – | – | – | – | – | – |
| CC1COCCN1c1cc(-c2ccnn2C)c2ccnc(-c3ccn[nH]3)c2n1 (centres undefined) | 83.8% and 68.1% and 84.5% | 77.6% and 66% and 75.6% | 37.2% and 34.3% and 47.2% | 30.1% and 21.7% and 29.9% | 31.1% and 24.6% and 29.9% | 25.2% and 20.8% and 22.6% | 0.22 µM and 0.179 µM and 0.286 µM | – | – | – | – | – | – |
| CC[C@@]1(O)C(=O)OCc2c1cc1n(c2=O)Cc2cc3c(CN(C)C)c(O)ccc3nc2-1 | – | – | – | – | – | – | – | 85.4% [middle of 10 runs] | 22.1% [middle of 10 runs] | 31.3% [middle of 10 runs] | – | – | IC50 [1]: 39.5 nM [middle of 5 runs]; IC50 [2]: 45.2 nM [middle of 5 runs] |
| CNCc1ccc(-c2cc(-c3nc(-c4ccc(S(=O)(=O)C(C)C)cc4)cnc3N)on2)cc1 | – | – | – | – | – | – | 1.29 µM and 0.931 µM and 1.17 µM | 96.4% and 93.6% and 109% | 95.8% and 90.1% and 96.7% | 89% and 71.3% and 84.3% | 59.4% and 53.5% and 57.1% | 24.5% and 15.9% and 19.6% | viability, T/C (compound 0.03 µM): 103% and 118% and 115% |
| COc1cc(C)[nH]c(=O)c1CN1CCc2c(Cl)cc(C(OC)C3COC3)c(Cl)c2C1=O (centres undefined) | 84.3% and 79.3% and 103% | 96.4% and 99.4% and 110% | 99% and 102% and 105% | 91.7% and 88.1% and 112% | 86% and 95.8% and 122% | 107% and 93% and 118% | > 10 µM | – | – | – | – | – | – |
| COc1cc2c(cc1O)CCNC21CSC2c3c(OC(C)=O)c(C)c4c(c3C(COC1=O)N1C(O)C3Cc5cc(C)c(OC)c(O)c5C(C21)N3C)OCO4 (centres undefined) | – | – | – | – | – | – | – | – | – | – | – | – | viability, T/C (compound 30 pM): 95.8% [middle of 10 runs]; viability, T/C (compound 94.9 pM): 101% [middle of 10 runs]; viability, T/C (compound 0.0003 µM): 80.7% [middle of 10 runs]; viability, T/C (compound 0.000949 µM): 4.41% [middle of 10 runs]; viability, T/C (compound 0.003 µM): 0.17% [middle of 9 runs]; IC50 [2]: 0.477 nM [middle of 10 runs] |
| COc1ccc([C@@H](O)c2cc(-c3ncnc4cc(N5CCOCC5)ccc34)c(F)cc2Cl)nn1 | 95.2% and 80.1% and 80.3% | 99.7% and 89.8% and 88% | 88% and 84.6% and 86.1% | 71.3% and 63.9% and 76.9% | 59.8% and 60.9% and 55.3% | 46.2% and 62.8% and 43.4% | 7.33 µM and > 10 µM and 5.22 µM | – | – | – | – | – | – |
| Cc1cc(C)c(CNC(=O)c2cc(-c3ccc(CN4CCOCC4)cc3)cc3c2cnn3C2CCCC2)c(=O)[nH]1 | 80.8% and 92.1% and 108% | 101% and 82.4% and 85.2% | 85.4% and 99.5% and 97.3% | 97.1% and 73% and 93.2% | 90.4% and 89.8% and 92.5% | 90% and 87.1% and 91.1% | > 10 µM | – | – | – | – | – | – |
| Cc1sc2c(c1C)C(c1ccc(Cl)cc1)=NC(CC(=O)Nc1ccc(O)cc1)c1nnc(C)n1-2 (centres undefined) | – | – | – | – | – | – | 1.92 µM and 1.73 µM and > 3 µM | 77.1% and 103% and 87% | 83.7% and 95.2% and 98% | 70% and 80.3% and 96.3% | 70.8% and 58.4% and 64.4% | 38.2% and 42.2% and 73% | viability, T/C (compound 0.03 µM): 89.1% and 92% and 94.1% |
| Cn1ncnc1[C@H]1c2n[nH]c(=O)c3cc(F)cc(c23)N[C@@H]1c1ccc(F)cc1 | – | – | – | – | – | – | 1.33 µM and 0.993 µM and 1.5 µM | 69.9% and 99.2% and 102% | 79.2% and 71.3% and 86.4% | 71.5% and 69% and 85.9% | 67.1% and 59.8% and 73.4% | 8.93% and 21.2% and 16.4% | viability, T/C (compound 0.03 µM): 71.1% and 90.5% and 84.6% |
| Cn1nnc2c(C(N)=O)ncn2c1=O | – | – | – | 90.8% [middle of 10 runs] | – | – | – | – | – | – | – | – | viability, T/C (compound 31.6 µM): 57.1% [middle of 10 runs]; IC50 [1]: 81 µM and > 100 µM and 72.6 µM |
| O=C(c1cc(Cc2n[nH]c(=O)c3ccccc23)ccc1F)N1CCN(C(=O)C2CC2)CC1 | – | – | – | – | – | – | > 30 µM | – | 84% and 87.4% and 95% | 82.5% and 83.7% and 107% | 103% and 85.3% and 77.8% | 64.4% and 72.5% and 82.7% | viability, T/C (compound 9.49 µM): 62.2% and 60.3% and 65.8%; viability, T/C (compound 30 µM): 50.7% and 52.9% and 63.1% |
| [2H]c1nc(C)nc([2H])c1-c1cc(NC[C@@H](C)c2cccc3c(C(=O)NC)ccnc23)ncn1 | 84.5% and 81.3% and 110% | 98.4% and 80% and 94.7% | 91.8% and 92.6% and 92.1% | 86.1% and 87.3% and 89.5% | 91.8% and 77.7% and 88.6% | 86.8% and 70% and 99.2% | > 10 µM | – | – | – | – | – | – |
